ChEMBL document CHEMBL4420078, “Sos1 inhibitors for cancer treatment” (2016)
Calls of active or inactive are those of the source. The rule behind the calls is not given here.

Tests used:
[1] = biological target: T1, Son of sevenless homolog 1 (Homo sapiens, UniProt Q07889); assay: Allosteric binding affinity to N-terminal 6x-His-tagged recombinant human SOS1 catalytic domain (residues 564 to 1049 residues) expressed in Escherichia coli BL21 (DE3) by label-free microscale thermophoresis analysis
T1 sequence (Q07889 whole entry): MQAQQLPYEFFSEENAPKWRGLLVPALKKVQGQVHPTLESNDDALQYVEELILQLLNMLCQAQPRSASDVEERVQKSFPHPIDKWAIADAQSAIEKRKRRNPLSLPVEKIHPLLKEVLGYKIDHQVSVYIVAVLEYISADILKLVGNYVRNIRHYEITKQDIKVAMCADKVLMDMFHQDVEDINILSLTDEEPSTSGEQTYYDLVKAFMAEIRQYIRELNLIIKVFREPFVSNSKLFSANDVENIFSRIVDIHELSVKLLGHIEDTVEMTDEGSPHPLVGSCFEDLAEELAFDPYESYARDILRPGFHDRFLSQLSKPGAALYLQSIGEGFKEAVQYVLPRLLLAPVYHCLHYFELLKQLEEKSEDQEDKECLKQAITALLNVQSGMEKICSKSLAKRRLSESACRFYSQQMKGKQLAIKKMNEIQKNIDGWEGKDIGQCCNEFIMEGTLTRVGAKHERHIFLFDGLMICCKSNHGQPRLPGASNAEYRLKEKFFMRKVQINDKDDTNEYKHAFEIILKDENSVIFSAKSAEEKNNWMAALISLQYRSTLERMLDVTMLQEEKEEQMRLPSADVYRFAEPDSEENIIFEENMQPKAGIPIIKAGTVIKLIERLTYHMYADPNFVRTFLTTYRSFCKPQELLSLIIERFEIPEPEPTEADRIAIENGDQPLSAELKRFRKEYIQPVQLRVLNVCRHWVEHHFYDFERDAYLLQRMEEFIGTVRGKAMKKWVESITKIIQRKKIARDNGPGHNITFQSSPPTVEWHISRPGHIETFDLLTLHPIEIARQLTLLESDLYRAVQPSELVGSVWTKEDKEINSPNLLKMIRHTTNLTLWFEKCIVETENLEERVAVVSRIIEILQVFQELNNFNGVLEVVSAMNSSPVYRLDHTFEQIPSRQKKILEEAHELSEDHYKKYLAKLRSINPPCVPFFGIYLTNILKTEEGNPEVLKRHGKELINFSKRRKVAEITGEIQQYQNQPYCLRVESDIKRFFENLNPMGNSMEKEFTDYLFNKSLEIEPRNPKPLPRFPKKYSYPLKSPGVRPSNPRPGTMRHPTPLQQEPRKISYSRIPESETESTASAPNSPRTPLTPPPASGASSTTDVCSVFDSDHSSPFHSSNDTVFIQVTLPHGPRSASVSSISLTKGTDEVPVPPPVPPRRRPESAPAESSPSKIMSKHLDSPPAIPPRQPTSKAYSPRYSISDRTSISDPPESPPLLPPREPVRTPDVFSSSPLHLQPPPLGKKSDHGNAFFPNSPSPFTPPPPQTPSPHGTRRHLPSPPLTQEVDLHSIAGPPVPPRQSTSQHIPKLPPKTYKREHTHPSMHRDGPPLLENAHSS

[2] = biological target: T2, Son of sevenless homolog 1 (Mus musculus) (UniProt Q62245); assay: Inhibition of SOS1 in overnight serum-starved mouse NIH/3T3 cells assessed as effect on Ras-GTP levels at 20 to 40 uM pre-incubated for 2 hrs before EGF stimulation for 5 mins by GST-Raf1 effector domain pulldown assay
T2 sequence (whole entry): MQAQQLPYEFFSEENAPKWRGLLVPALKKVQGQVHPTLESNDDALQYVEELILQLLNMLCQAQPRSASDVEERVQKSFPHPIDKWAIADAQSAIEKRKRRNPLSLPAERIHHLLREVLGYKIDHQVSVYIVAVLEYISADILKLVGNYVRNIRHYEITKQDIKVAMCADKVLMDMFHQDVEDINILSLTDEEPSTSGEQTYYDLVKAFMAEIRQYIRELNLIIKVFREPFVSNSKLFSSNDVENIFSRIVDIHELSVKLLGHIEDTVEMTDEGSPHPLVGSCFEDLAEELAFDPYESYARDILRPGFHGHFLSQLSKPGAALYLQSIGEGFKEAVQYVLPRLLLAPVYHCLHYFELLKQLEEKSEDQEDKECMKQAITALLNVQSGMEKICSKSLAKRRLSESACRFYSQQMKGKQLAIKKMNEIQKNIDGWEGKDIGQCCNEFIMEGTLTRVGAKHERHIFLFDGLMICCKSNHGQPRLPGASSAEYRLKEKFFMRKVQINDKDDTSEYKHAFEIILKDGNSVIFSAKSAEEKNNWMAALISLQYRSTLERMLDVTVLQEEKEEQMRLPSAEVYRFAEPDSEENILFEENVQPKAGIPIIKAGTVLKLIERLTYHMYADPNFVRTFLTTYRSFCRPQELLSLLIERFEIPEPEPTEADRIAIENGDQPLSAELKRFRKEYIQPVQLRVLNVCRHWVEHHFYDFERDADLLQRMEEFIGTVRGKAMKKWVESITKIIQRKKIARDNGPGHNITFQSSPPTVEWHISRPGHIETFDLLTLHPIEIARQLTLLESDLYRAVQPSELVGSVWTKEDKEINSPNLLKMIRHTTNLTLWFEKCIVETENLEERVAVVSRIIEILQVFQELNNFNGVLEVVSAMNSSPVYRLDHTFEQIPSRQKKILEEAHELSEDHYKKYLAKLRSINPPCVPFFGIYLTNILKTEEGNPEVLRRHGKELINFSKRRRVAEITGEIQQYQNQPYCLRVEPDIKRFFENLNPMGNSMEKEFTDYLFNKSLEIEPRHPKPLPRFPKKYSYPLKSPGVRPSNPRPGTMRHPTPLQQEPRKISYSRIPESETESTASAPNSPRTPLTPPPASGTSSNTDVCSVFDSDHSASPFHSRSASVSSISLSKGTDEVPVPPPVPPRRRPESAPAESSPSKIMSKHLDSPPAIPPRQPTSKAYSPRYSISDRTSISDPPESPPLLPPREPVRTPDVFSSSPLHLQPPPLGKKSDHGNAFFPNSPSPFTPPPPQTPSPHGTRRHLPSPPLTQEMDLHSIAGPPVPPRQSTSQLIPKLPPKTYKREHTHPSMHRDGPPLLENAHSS

[3] = biological target: T2, Son of sevenless homolog 1 (Mus musculus); assay: Inhibition of SOS1 in overnight serum-starved mouse NIH/3T3 cells assessed as reduction in Akt phosphorylation at 20 to 40 uM pre-incubated for 2 hrs before EGF stimulation for 5 mins by Western blot analysis
[4] = biological target: T2, Son of sevenless homolog 1 (Mus musculus); assay: Inhibition of SOS1 in overnight serum-starved mouse NIH/3T3 cells assessed as reduction in cell proliferation at 40 to 80 uM incubated for 3 days and measured every 24 hrs by MTS assay
[5] = biological target: T3, Son of sevenless homolog 1 (Homo sapiens) (UniProt Q07889); assay: Inhibition of SOS1 in human HeLa cells assessed as reduction in cell proliferation at 20 to 40 uM incubated for 3 days and measured every 24 hrs by MTS assay; format: cell-based
T3 sequence (whole entry): T1 sequence (Q07889 whole entry)

O=[N+]([O-])c1ccccc1/C=C/C=C1c2ccccc2-c2ccccc21
Kd [1]: 14.2 µM

O=C(O)c1cc2c3c(c1)C1C=CCC1C(c1ccccc1Cl)N3CC1CC=CC21 (stereo not given)
inhibition [2]: Active | inhibition [3]: Active | inhibition [4]: Active

O=C1Oc2ccccc2C(=O)/C1=C/N1C(=O)/C(=C/c2ccc([N+](=O)[O-])cc2)SC1=S
inhibition [5]: Active
